# Results from article PMC11224556, “Next-generation of BBQ analogues that selectively target breast cancer” (Frontiers in Chemistry, 2024).
# Where two headings read alike, the source gives them in different places.
# What was measured:
# Assay type in all cases: cell-based, human
# A2780 (ovary) cells = experiment: MTT growth inhibition assay (72 h)
# From the text: (§1) Each BBQ analogue, 2-14 was screened for their growth inhibition ability (GI50) in a broad panel of cancer cell lines and a non-cancer breast cell line (MCF10A), using the MTT growth inhibition assay (Table 1) ([Baker et al., 2021b]). The cancer panel comprised HT29 (colorectal), U87 (brain), SJ-G2 (brain), A2780 (ovary), Du145 (prostate), BE2-C (neuronal), MIA (pancreas), H460 (lung, ER+), A431 (vulva, ER+ (estrogen receptor positive)), and a wide selection of breast cancer cell lines with varying receptor status including MCF-7 (ER + luminal A), T47D (ER/PR+ (progesterone receptor positive)luminal A), ZR-75-1 (ER/PR + luminal A), BT-474 (ER/PR/HER2+ luminal B), SKBR-3 (HER2+), MDA-MB-468, BT20, and MDA-MB-231 (basal, triple negative (TN) for ER, PR, and HER2).
# (§2) Stock solutions were prepared as follows and stored as 20 mM DMSO solutions at −20 °C. All cell lines were cultured in a humidified atmosphere 5% CO2 at 37 °C. The cancer cell lines were maintained in Dulbecco’s modified Eagle’s medium (DMEM) (Trace Biosciences, Australia) supplemented with 10% foetal bovine serum (FBS), 10 mM sodium bicarbonate, penicillin (100 IU/mL), streptomycin (100 μg/mL), and glutamine (4 mM). The non-cancer MCF10A cell line was cultured in DMEM:F12 (1:1) cell culture media, 5% heat inactivated horse serum, supplemented with penicillin (50 IU/mL), streptomycin (50 μg/mL), 20 mM Hepes, L-glutamine (2 mM), epidermal growth factor (20 ng/mL), hydrocortisone (500 ng/mL), cholera toxin (100 ng/mL), and insulin (10 μg/mL). The AhR reporter cell line HT29-Lucia™ (Invivogen, United States) was maintained in DMEM supplemented with 10% heat inactivated FBS, L-glutamine (2 mM), penicillin (100 IU/mL), streptomycin (100 μg/mL), 100 μg/mL Normocin™, and 100 μg/mL of the selective antibiotic Zeocin™. All cell lines were purchased from the American Type Culture Collection (ATCC), except for A2780 and A431 which were from the European Collection of Authenticated Cell Cultures (ECACC), and SJ-G2 cell line which was from Dr Mary Danks, St Jude Children’s Research hospital, Memphis, TN.
# (§3) Cells in logarithmic growth were transferred to 96-well plates. Cytotoxicity was determined by plating cells in duplicate in 100 μL medium at a density of 2,500–4,000 cells/well in 96 well plates. On day 0, (24 h after plating) when the cells were in logarithmic growth 100 μL medium with or without the test agent was added to each well. After 72 h drug exposure growth inhibitory effects were evaluated using the MTT (3-[4,5-dimethylthiazol-2-yl]-2,5-diphenyltetrazolium bromide) assay with absorbance read at 540 nm. An eight-point dose response curve was produced, using MS Excel software. From these dose-response curves, the GI50 value was calculated, representing the drug concentration at which cell growth is 50% inhibited based on the difference between the optical density values on day 0 and those at the end of drug exposure ([Bradshaw et al., 2008]; [Zhang et al., 2009]). Each data point was conducted in duplicate and the mean ± S.E.M. calculated from four to five replicates (n = 4 or 5), which were performed on separate occasions and separate cell line passages. Where shown, significant test results were determined using T-test analysis at p < 0.01 and p < 0.05 with a two tail distribution.
# A431 (vulva/skin) cells = experiment: MTT growth inhibition assay (72 h)
# From the text: as §1, §2, §3
# BE2-C (neuronal) cells = experiment: MTT growth inhibition assay (72 h); conditions: Neuron
# From the text: as §1, §2, §3
# BT20 breast cancer cells = experiment: MTT growth inhibition assay (72 h)
# From the text: as §1, §2, §3
# [1] = system: BT474 breast cancer cells; experiment: MTT growth inhibition assay (72 h)
# From the text: as §1, §2, §3
# Du145 (prostate) cells = experiment: MTT growth inhibition assay (72 h)
# From the text: as §1, §2, §3
# H460 (lung) cells = experiment: MTT growth inhibition assay (72 h)
# From the text: as §1, §2, §3
# HT29 (colorectal) cells = experiment: MTT growth inhibition assay (72 h)
# From the text: as §1, §2, §3
# [2] = system: MCF-7 breast cancer cells; experiment: MTT growth inhibition assay (72 h)
# From the text: as §1, §2, §3
# [3] = system: MCF10A normal breast cells; experiment: MTT growth inhibition assay (72 h)
# From the text: as §1, §2, §3
# [4] = system: MDA-MB-231 breast cancer cells; experiment: MTT growth inhibition assay (72 h); conditions: MDA-MB-231, Breast (TN)
# From the text: as §1, §2, §3
# [5] = system: MDA-MB-468 breast cancer cells; experiment: MTT growth inhibition assay (72 h); conditions: MDA-MB-468, Breast (TN)
# From the text: as §1, §2, §3
# MIA (pancreas) cells = experiment: MTT growth inhibition assay (72 h)
# From the text: as §1, §2, §3
# SJ-G2 (brain) cells = experiment: MTT growth inhibition assay (72 h); conditions: SJ-G2, Brain (GBM)
# From the text: as §1, §2, §3
# [6] = system: SKBR3 breast cancer cells; experiment: MTT growth inhibition assay (72 h)
# From the text: as §1, §2, §3
# T47D breast cancer cells = experiment: MTT growth inhibition assay (72 h); conditions: Breast (ER/PR)
# From the text: as §1, §2, §3
# U87 (brain) cells = experiment: MTT growth inhibition assay (72 h); conditions: U87, Brain (GBM)
# From the text: as §1, §2, §3
# [7] = system: ZR-75-1 breast cancer cells; experiment: MTT growth inhibition assay (72 h); conditions: ZR-75-1, Breast (ER/PR)
# From the text: as §1, §2, §3
# [8] = system: broad panel of cancer cell lines and non-cancer breast cell line MCF10A; experiment: MTT growth inhibition: GI50 ranges and selectivity across the cell line panel
# From the text: as §1, §2, §3
# [9] = Homo sapiens, A-431, A431, Skin (ER)
# [10] = Homo sapiens, BT-20, BT20, Breast (TN)
# [11] = Homo sapiens, BT-474, BT474, Breast (ER/PR/HER2)
# [12] = Homo sapiens, NCI-H460, H460, Lung (ER)
# [13] = Homo sapiens, HT-29, HT29, Colon
# [14] = Homo sapiens, MCF7, MCF-7, Breast (ER)
# [15] = Homo sapiens, SK-BR-3, SKBR3, Breast (HER2)
compound,measurement,setting,value
"3-Chloro-7H-benzo[de]benzo[4,5]imidazo[2,1-a]isoquinolin-7-one (10a) and 4-chloro-7H-benzo[de]benzo[4,5]imidazo[2,1-a]isoquinolin-7-one (10b) [Compound 10]",GI50,A2780 (ovary) cells,4.6 ± 0.25 µM
same,GI50,"A431 (vulva/skin) cells; A431, Skin (ER)",0.15 ± 0.036 µM
same,GI50,BE2-C (neuronal) cells,7 ± 0.23 µM
same,GI50,"BT20 breast cancer cells; BT20, Breast (TN)",0.27 ± 0.12 µM
same,GI50,"[1]; BT474, Breast (ER/PR/HER2)",0.56 ± 0.42 µM
same,GI50,Du145 (prostate) cells,> 50 µM
same,GI50,"H460 (lung) cells; H460, Lung (ER)",5.7 ± 1.48 µM
same,GI50,"HT29 (colorectal) cells; HT29, Colon",2.9 ± 0.18 µM
same,GI50,"[2]; MCF-7, Breast (ER)",0.14 ± 0.045 µM
same,GI50,[3],4.2 ± 0.38 µM
same,GI50,[4],29 ± 10.3 µM
same,GI50,[5],0.0056 ± 0.0017 µM
same,GI50,MIA (pancreas) cells,9.8 ± 3.1 µM
same,GI50,SJ-G2 (brain) cells,4.8 ± 0.44 µM
same,GI50,"[6]; SKBR3, Breast (HER2)",0.061 ± 0.024 µM
same,GI50,T47D breast cancer cells,0.18 ± 0.019 µM
same,GI50,U87 (brain) cells,37 ± 5.8 µM
same,GI50,[7],0.072 ± 0.03 µM
same,"selectivity relative to the normal cell line (fold, range over cell lines)","[8]; A431, MCF-7, T47D, ZR-75-1, SKBR-3, MDA-MB-468, BT20, BT474 vs MCF10A",7.5 to 750 fold
same,GI50,"[8]; MCF-7, T47D, ZR-75-1, SKBR-3, MDA-MB-468, BT20, BT474, read-out: GI50 (range over cell lines)",0.0056 to 0.56 µM
same,"fold more potent than head group substituted analogues 3, 4, 6, 7, 8 and 9",[8]; across the cell lines examined (Table 1),> 10 fold
"O=c1c2cccc3cccc(c32)c2nc3cc(Cl)ccc3n12 [Compound 4, 11-Chloro-7H-benzo[de]benzo[4,5]imidazo[2,1-a]isoquinolin-7-one]",GI50,A2780 (ovary) cells; Homo sapiens,6 ± 0.32 µM
same,GI50,A431 (vulva/skin) cells; [9],10 ± 2 µM
same,GI50,"BE2-C (neuronal) cells; Homo sapiens, BE(2)-C",10 ± 1.7 µM
same,GI50,BT20 breast cancer cells; [10],28 ± 3 µM
same,GI50,[1]; [11],> 50 µM
same,GI50,"Du145 (prostate) cells; Homo sapiens, DU-145",12 ± 0.33 µM
same,GI50,H460 (lung) cells; [12],8.2 ± 1.92 µM
same,GI50,HT29 (colorectal) cells; [13],18 ± 3.2 µM
same,GI50,[2]; [14],5.3 ± 0.39 µM
same,GI50,"[3]; Homo sapiens, MCF-10A",4.1 ± 0.2 µM
same,GI50,[4]; Homo sapiens,9 ± 1 µM
same,GI50,[5]; Homo sapiens,0.88 ± 0.17 µM
same,GI50,MIA (pancreas) cells; Homo sapiens,31 ± 3.3 µM
same,GI50,SJ-G2 (brain) cells; Homo sapiens,8.8 ± 1.1 µM
same,GI50,[6]; [15],0.26 ± 0.07 µM
same,GI50,T47D breast cancer cells; Homo sapiens,8.6 ± 2.2 µM
same,GI50,U87 (brain) cells; Homo sapiens,18 ± 1.8 µM
same,GI50,[7]; Homo sapiens,0.81 ± 0.43 µM
same,GI50,"[8]; Homo sapiens, read-out: GI50 (range over cell lines and both compounds 3 and 4), ZR-75-1, SKBR3 and MDA-MB-468",0.26 to 0.88 µM
same,greatest difference between growth inhibition in breast cancer cells and normal breast cells (fold),[8]; SKBR3 vs MCF10A,16 fold
"O=c1c2ccccc2cc2[nH]c3ccccc3n12 [Compound 12, Benzo[4,5]imidazo[1,2-b]isoquinolin-11(5H)-one]",GI50,A2780 (ovary) cells; Homo sapiens,3 ± 2.1 µM
same,GI50,A431 (vulva/skin) cells; [9],0.48 ± 0.1 µM
same,GI50,"BE2-C (neuronal) cells; Homo sapiens, BE(2)-C",0.24 ± 0.079 µM
same,GI50,BT20 breast cancer cells; [10],0.16 ± 0.048 µM
same,GI50,[1]; [11],> 50 µM
same,GI50,"Du145 (prostate) cells; Homo sapiens, DU-145",> 50 µM
same,GI50,H460 (lung) cells; [12],> 50 µM
same,GI50,HT29 (colorectal) cells; [13],0.21 ± 0.056 µM
same,GI50,[2]; [14],0.12 ± 0.05 µM
same,GI50,"[3]; Homo sapiens, MCF-10A",0.54 ± 0.07 µM
same,GI50,[4]; Homo sapiens,> 50 µM
same,GI50,[5]; Homo sapiens,0.141 ± 0.074 µM
same,GI50,MIA (pancreas) cells; Homo sapiens,0.62 ± 0.16 µM
same,GI50,SJ-G2 (brain) cells; Homo sapiens,43 ± 10.3 µM
same,GI50,[6]; [15],0.2 ± 0.071 µM
same,GI50,T47D breast cancer cells; Homo sapiens,0.164 ± 0.083 µM
same,GI50,U87 (brain) cells; Homo sapiens,> 50 µM
same,GI50,[7]; Homo sapiens,0.17 ± 0.023 µM
"O=c1c2cccc3cccc(c4n1Cc1ccccc1N=4)c32 [Compound 13, 7H,9H-benzo[4,5]isoquinolino[1,2-b]quinazolin-7-one]",GI50,A2780 (ovary) cells; Homo sapiens,> 50 µM
same,GI50,A431 (vulva/skin) cells; [9],43 ± 4.4 µM
same,GI50,"BE2-C (neuronal) cells; Homo sapiens, BE(2)-C",42 ± 1.5 µM
same,GI50,BT20 breast cancer cells; [10],> 50 µM
same,GI50,[1]; [11],> 50 µM
same,GI50,"Du145 (prostate) cells; Homo sapiens, DU-145",> 50 µM
same,GI50,H460 (lung) cells; [12],> 50 µM
same,GI50,HT29 (colorectal) cells; [13],> 50 µM
same,GI50,[2]; [14],32 ± 1.9 µM
same,GI50,"[3]; Homo sapiens, MCF-10A",38 ± 1.2 µM
same,GI50,[4]; Homo sapiens,> 50 µM
same,GI50,[5]; Homo sapiens,36 ± 3.8 µM
same,GI50,MIA (pancreas) cells; Homo sapiens,38 ± 1 µM
same,GI50,SJ-G2 (brain) cells; Homo sapiens,56 ± 3.7 µM
same,GI50,[6]; [15],47 ± 2.7 µM
same,GI50,T47D breast cancer cells; Homo sapiens,40 ± 3.3 µM
same,GI50,U87 (brain) cells; Homo sapiens,> 50 µM
same,GI50,[7]; Homo sapiens,35 ± 1 µM
